Experimental data reported in patent US20250136577A1, “HETEROCYCLIC DERIVATIVES AS MALT1 INHIBITORS” (C4X Discovery Limited, priority 2022, published 2025).

Key:
[1] = biological target: MALT1-GS-Ub (6-His-hMALT-1 residues 339-715 fused to ubiquitin) (Homo sapiens (Human), UniProt Q9UDY8); test: MALT1 Protease Assay 1 (Assay 1), cleavage of fluorogenic tetrapeptide substrate; assay type: biochemical; conditions: MALT1-GS-Ub 300-600 nM, Ac-LVSR-AMC 100 μM, 30 min preincubation, 60 min read
Protocol: MALT1 Protease Assay 1 (Assay 1)
(§1) MALT1 protease activity was assessed in vitro by measuring the cleavage of a fluorogenic tetrapeptide substrate.
A protein (MALT1-GS-Ub) comprising 6-His-hMALT-1 (residues 339-715), fused to ubiquitin with an 8× GGS linker, was expressed in E. coli, and purified using chitin resin to remove contaminants followed by affinity chromatography purification and size-exclusion chromatography, according to standard protocols.
Briefly, MALT1-GS-Ub (300-600 nM) was incubated with substrate (Ac-LVSR-AMC, 100 μM) in reaction buffer comprising 50 mM HEPES (pH7.0), 25 mM KCl, 0.1% (v/v) CHAPS and 1 mM TCEP.
(§2) Test compounds dissolved in DMSO were dispensed into assay plates (384-well, black, shallow ProxiPlates). 7 μl enzyme solution was added and incubated at room temperature for 30 minutes to allow compound binding to occur. 2 μl substrate solution was then added and the fluorescence (excitation 360 nm, emission 460 nm) read every 15 minutes using a suitable plate reader. Final assay DMSO concentration was 1%. Linearity over 60 minutes was confirmed, and assay signal was calculated by subtracting raw counts at time 0 from those at 60 minutes. % inhibition was calculated for each well, using no enzyme for 100% inhibition controls and no compound for 0% inhibition controls. IC50 values were calculated using GraphPad Prism using a 4-parameter non-linear regression curve fit.

[2] = biological target: FL hMALT1 enzyme (Homo sapiens (Human), UniProt Q9UDY8); test: MALT1 Protease Assay 2 (Assay 2), higher sensitivity, cleavage of fluorogenic tetrapeptide substrate; assay type: biochemical; conditions: FL hMALT1 1-10 nM, Ac-LVSR-AMC 100 μM, 0.7 M sodium citrate, 30 min preincubation, 60 min read
Sequence of FL hMALT1 enzyme (Q9UDY8 whole entry): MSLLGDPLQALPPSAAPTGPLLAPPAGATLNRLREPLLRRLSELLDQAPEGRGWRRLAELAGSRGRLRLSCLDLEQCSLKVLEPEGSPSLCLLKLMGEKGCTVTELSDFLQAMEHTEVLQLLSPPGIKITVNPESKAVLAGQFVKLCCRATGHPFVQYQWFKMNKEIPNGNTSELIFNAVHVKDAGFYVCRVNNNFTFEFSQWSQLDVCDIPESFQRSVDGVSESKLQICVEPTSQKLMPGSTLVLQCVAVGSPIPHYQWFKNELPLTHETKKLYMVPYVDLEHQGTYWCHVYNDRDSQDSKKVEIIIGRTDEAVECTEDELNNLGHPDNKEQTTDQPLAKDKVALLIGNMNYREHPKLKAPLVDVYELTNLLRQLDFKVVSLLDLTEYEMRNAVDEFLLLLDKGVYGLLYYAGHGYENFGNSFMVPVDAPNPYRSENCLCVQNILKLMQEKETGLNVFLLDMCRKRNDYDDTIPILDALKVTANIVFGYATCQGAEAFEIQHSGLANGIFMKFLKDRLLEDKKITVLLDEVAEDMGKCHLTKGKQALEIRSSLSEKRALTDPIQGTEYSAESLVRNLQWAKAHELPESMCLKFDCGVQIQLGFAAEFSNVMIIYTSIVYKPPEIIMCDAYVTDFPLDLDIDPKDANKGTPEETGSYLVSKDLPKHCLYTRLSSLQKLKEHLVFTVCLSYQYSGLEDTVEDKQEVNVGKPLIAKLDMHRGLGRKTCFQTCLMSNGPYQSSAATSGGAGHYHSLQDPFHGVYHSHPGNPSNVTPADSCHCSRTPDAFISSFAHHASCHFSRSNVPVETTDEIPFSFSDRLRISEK
Protocol: MALT1 Protease Assay 2 (Assay 2)
as §1
For a higher sensitivity assay, commercially available FL hMALT1 enzyme (Abcam, 1-10 nM) was incubated with substrate (Ac-LVSR-AMC, 100 μM) in reaction buffer comprising 50 mM HEPES (pH7.0), 25 mM KCl, 0.1% (v/v) CHAPS, 1 mM TCEP and 0.7 M sodium citrate.
as §2

Sequence of MALT1-GS-Ub (6-His-hMALT-1 residues 339-715 fused to ubiquitin) (Q9UDY8 other isoform, or with tags, fused parts or gaps): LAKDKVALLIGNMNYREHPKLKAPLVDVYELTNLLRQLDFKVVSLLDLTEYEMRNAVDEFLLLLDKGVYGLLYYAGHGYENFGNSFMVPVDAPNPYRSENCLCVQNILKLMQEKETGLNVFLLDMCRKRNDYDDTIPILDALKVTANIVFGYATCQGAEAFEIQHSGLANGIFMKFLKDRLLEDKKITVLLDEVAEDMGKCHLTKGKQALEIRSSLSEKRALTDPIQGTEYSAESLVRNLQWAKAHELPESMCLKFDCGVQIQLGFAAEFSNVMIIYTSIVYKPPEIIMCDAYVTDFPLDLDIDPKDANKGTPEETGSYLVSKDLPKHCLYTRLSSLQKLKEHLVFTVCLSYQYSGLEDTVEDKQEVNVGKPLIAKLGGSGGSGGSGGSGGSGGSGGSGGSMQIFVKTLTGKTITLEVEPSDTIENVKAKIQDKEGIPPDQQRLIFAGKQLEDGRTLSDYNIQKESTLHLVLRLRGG

Row | SMILES | IC50 [1] | IC50 [2]
1 | O=C(Nc1cnc(-n2nccn2)c(C(F)(F)F)c1)N1CCOc2c(Br)cccc21 [Example 4, N-(6-(2H-1,2,3-Triazol-2-yl)-5-(trifluoromethyl)pyridin-3-yl)-8-bromo-2,3-dihydro-4H-benzo[b][1,4]oxazine-4-carboxamide] | 2800 nM | 400 nM
2 | C#CC1CN(C(=O)Nc2cnc(-n3nccn3)c(Cl)c2)c2cccc(Br)c2O1 (centres unmarked) [Example 20, 8-Bromo-N-(5-chloro-6-(2H-1,2,3-triazol-2-yl)pyridin-3-yl)-2-ethynyl-2,3-dihydro-4H-benzo[b][1,4]oxazine-4-carboxamide] | 3300 nM | 590 nM
3 | O=C(Nc1cnc(-n2nccn2)c(C(F)(F)F)c1)N1CCCc2c(-c3nccs3)cccc21 [Example 10, N-(6-(2H-1,2,3-Triazol-2-yl)-5-(trifluoromethyl)pyridin-3-yl)-5-(thiazol-2-yl)-3,4-dihydroquinoline-1 (2H)-carboxamide] | 1500 nM | 1000 nM
4 | CC1(C)CN(C(=O)Nc2cnc(-n3nccn3)c(Cl)c2)c2cncc(C3CC3)c2O1 [Example 24, N-(5-Chloro-6-(2H-1,2,3-triazol-2-yl)pyridin-3-yl)-8-cyclopropyl-2,2-dimethyl-2,3-dihydro-4H-pyrido[4,3-b][1,4]oxazine-4-carboxamide] | 2500 nM | 340 nM
5 | O=C(Nc1cnc(-n2nccn2)c(Cl)c1)N1CC2CCCCN2c2c(Br)cncc21 (centres unmarked) [Example 28, 1-Bromo-N-(5-chloro-6-(2H-1,2,3-triazol-2-yl)pyridin-3-yl)-6,6a,7,8,9,10-hexahydro-5H-dipyrido[1,2-a: 3′,4′-e] pyrazine-5-carboxamide] | 7300 nM | 1100 nM
6 | O=C(Nc1cnc(-n2nccn2)c(Cl)c1)N1CCCc2c(Br)cncc21 [Example 17, 5-Bromo-N-(5-chloro-6-(2H-1,2,3-triazol-2-yl)pyridin-3-yl)-3,4-dihydro-1,7-naphthyridine-1 (2H)-carboxamide] | 500 nM | 1500 nM
7 | CC1CN(C(=O)Nc2cnc(-n3nccn3)c(C(F)(F)F)c2)c2cccc(Br)c2O1 (centres unmarked) [Example 5, N-(6-(2H-1,2,3-Triazol-2-yl)-5-(trifluoromethyl)pyridin-3-yl)-8-bromo-2-methyl-2,3-dihydro-4H-benzo[b][1,4]oxazine-4-carboxamide] | 3300 nM | 120 nM
8 | O=C(Nc1cnc(-n2nccn2)c(Cl)c1)N1CC2(CCOC2)Oc2c(Br)cncc21 (centres unmarked) [Example 27, 8′—Bromo-N-(5-chloro-6-(2H-1,2,3-triazol-2-yl)pyridin-3-yl)-4,5-dihydro-2H-spiro [furan-3,2′-pyrido[4,3-b][1,4]oxazine]-4′ (3′H)-carboxamide] | 5000 nM | 900 nM
9 | O=C(Nc1cnc(-n2nccn2)c(C(F)(F)F)c1)N1CCCc2c(-c3ncco3)cccc21 [Example 9, N-(6-(2H-1,2,3-Triazol-2-yl)-5-(trifluoromethyl)pyridin-3-yl)-5-(oxazol-2-yl)-3,4-dihydroquinoline-1 (2H)-carboxamide] | 4600 nM | 2000 nM
10 | O=C(Nc1cnc(-n2nccn2)c(C(F)(F)F)c1)N1CCCc2c(-c3cccnc3)cccc21 [Example 8, N-(6-(2H-1,2,3-Triazol-2-yl)-5-(trifluoromethyl)pyridin-3-yl)-5-(pyridin-3-yl)-3,4-dihydroquinoline-1 (2H)-carboxamide] | 9800 nM | > 10000 nM
11 | O=C(Nc1cnc(-n2nccn2)c(C(F)(F)F)c1)N1CCCc2c(-c3ccccc3)cccc21 [Example 12, N-(6-(2H-1,2,3-Triazol-2-yl)-5-(trifluoromethyl)pyridin-3-yl)-5-phenyl-3,4-dihydroquinoline-1 (2H)-carboxamide] | 2300 nM | 650 nM
12 | CC1(C)Cc2c(Br)cccc2N(C(=O)Nc2cnc(-n3nccn3)c(Cl)c2)C1 [Example 15, 5-Bromo-N-(5-chloro-6-(2H-1,2,3-triazol-2-yl)pyridin-3-yl)-3,3-dimethyl-3,4-dihydroquinoline-1 (2H)-carboxamide] | 1300 nM | 440 nM
13 | CN1c2c(Br)cncc2N(C(=O)Nc2cnc(-n3nccn3)c(Cl)c2)CC1(C)C [Example 31, 8-Bromo-N-(5-chloro-6-(2H-1,2,3-triazol-2-yl)pyridin-3-yl)-1,2,2-trimethyl-2,3-dihydropyrido[3,4-b]pyrazine-4 (1H)-carboxamide] | 3000 nM | 260 nM
14 | COc1cccc2c1CCCN2C(=O)Nc1cnc(-n2nccn2)c(Cl)c1 [Example 3, N-(5-Chloro-6-(2H-1,2,3-triazol-2-yl)pyridin-3-yl)-5-methoxy-3,4-dihydroquinoline-1 (2H)-carboxamide] | 3000 nM | 610 nM
15 | O=C(Nc1cnc(-n2nccn2)c(C(F)(F)F)c1)N1CCCc2c(-c3nncs3)cccc21 [Example 14, N-(6-(2H-1,2,3-triazol-2-yl)-5-(trifluoromethyl)pyridin-3-yl)-5-(1,3,4-thiadiazol-2-yl)-3,4-dihydroquinoline-1 (2H)-carboxamide] | 8500 nM | 8200 nM
16 | C[C@@H]1CN(C(=O)Nc2cnc(-n3nccn3)c(C(F)(F)F)c2)c2cccc(Br)c2[C@@H]1C (relative stereo) [Example 11, cis-N-(6-(2H-1,2,3-Triazol-2-yl)-5-(trifluoromethyl)pyridin-3-yl)-5-bromo-3,4-dimethyl-3,4-dihydroquinoline-1 (2H)-carboxamide] | 4100 nM | 1200 nM
17 | O=C(Nc1cnc(-n2nccn2)c(Cl)c1)N1CCCc2c(C3CC3)cncc21 [Example 22, N-(5-Chloro-6-(2H-1,2,3-triazol-2-yl)pyridin-3-yl)-5-cyclopropyl-3,4-dihydro-1,7-naphthyridine-1 (2H)-carboxamide] | 4000 nM | 4700 nM
18 | N#Cc1cccc2c1CCCN2C(=O)Nc1cnc(-n2nccn2)c(Cl)c1 [Example 7, N-(5-Chloro-6-(2H-1,2,3-triazol-2-yl)pyridin-3-yl)-5-cyano-3,4-dihydroquinoline-1 (2H)-carboxamide] | 6900 nM | 1200 nM
19 | O=C(Nc1cnc(-n2nccn2)c(Cl)c1)N1C[C@@H]2CCCN2c2c(Br)cncc21 [Example 25, (S)-1-Bromo-N-(5-chloro-6-(2H-1,2,3-triazol-2-yl)pyridin-3-yl)-6a,7,8,9-tetrahydropyrido[3,4-e] pyrrolo[1,2-a]pyrazine-5 (6H)-carboxamide] | 1060 nM | 230 nM
20 | O=C(Nc1cnc(-n2nccn2)c(Cl)c1)N1CC(C(F)(F)F)Nc2c(Br)cncc21 (centres unmarked) [Example 37, 8-Bromo-N-(5-chloro-6-(2H-1,2,3-triazol-2-yl)pyridin-3-yl)-2-(trifluoromethyl)-2,3-dihydropyrido[3,4-b]pyrazine-4 (1H)-carboxamide] | 3900 nM | 540 nM
21 | O=C(Nc1cnc(-n2nccn2)c(Cl)c1)N1CC(C(F)(F)F)Oc2c(Br)cncc21 (centres unmarked) [Example 38, 8-Bromo-N-(5-chloro-6-(2H-1,2,3-triazol-2-yl)pyridin-3-yl)-2-(trifluoromethyl)-2,3-dihydro-4H-pyrido[4,3-b][1,4]oxazine-4-carboxamide] | 730 nM | 120 nM
22 | O=C(Nc1cnc(-n2nccn2)c(Cl)c1)N1CC(C(F)(F)F)Oc2c(Br)cncc21 (single isomer, unassigned) [Example 39, 8-Bromo-N-(5-chloro-6-(2H-1,2,3-triazol-2-yl)pyridin-3-yl)-2-(trifluoromethyl)-2,3-dihydro-4H-pyrido[4,3-b][1,4]oxazine-4-carboxamide] | 5800 nM | 1200 nM
